The values that follow come from patent US11655246B2, “Aminothiazole compounds as inhibitors of CTPS1” (STEP PHARMA S.A.S., priority 2017, dated 2023).

Where “and” joins values, the source holds several entries; their conditions need not be identical. Equal entries are not always repeated. Structures can show the parent of a compound that is named as a salt. Where two headings read alike, the source gives them in different places. A value given as a limit tells only on which side of the number the result lay.

In the assay the target is T1, human CTPS1 (Homo sapiens, UniProt P17812).
T1 construct: purchased Proteros biostructures GmbH
T1 sequence (P17812 1-591): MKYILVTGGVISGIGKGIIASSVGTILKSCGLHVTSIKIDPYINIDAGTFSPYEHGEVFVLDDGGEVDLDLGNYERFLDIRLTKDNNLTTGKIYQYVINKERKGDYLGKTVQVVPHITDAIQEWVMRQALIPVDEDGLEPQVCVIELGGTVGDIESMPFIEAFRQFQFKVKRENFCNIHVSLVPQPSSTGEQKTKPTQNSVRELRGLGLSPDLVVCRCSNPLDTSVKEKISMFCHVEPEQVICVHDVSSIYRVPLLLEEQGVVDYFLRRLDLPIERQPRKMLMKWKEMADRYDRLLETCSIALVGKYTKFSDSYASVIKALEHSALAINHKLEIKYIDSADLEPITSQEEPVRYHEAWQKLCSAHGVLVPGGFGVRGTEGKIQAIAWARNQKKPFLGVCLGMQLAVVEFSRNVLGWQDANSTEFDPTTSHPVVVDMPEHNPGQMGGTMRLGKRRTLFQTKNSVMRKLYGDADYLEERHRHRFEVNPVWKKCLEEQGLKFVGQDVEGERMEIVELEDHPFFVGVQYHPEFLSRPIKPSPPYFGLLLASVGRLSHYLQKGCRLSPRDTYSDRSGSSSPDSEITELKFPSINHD
Briefly: Human CTPS1 enzyme inhibition (ADP-Glo Max assay). It counts as biochemical. Particulars: read-out: CTPS1 (Human CTPS1 Enzyme Inhibition data grouped by potency range). How it is done: The enzyme inhibitory activities of compounds invented against the target of interest were determined using the ADP-Glo™ Max assay (Promega, UK). Assays for human CTPS1 were performed in 1× assay buffer containing 50 mM Tris, 10 mM MgCl2, 0.01% Tween-20, pH to 8.0 accordingly. Finally, immediately before use, L-cysteine was added to the 1× assay buffer to a final concentration of 2 mM. All reagents are from Sigma-Aldrich unless specified otherwise.
3× human CTPS1 protein was prepared in 1× assay buffer to the final working protein concentration required for the reaction. A 2 uL volume per well of 3× human CTPS1 protein was mixed with 2 uL per well of 3× test compound (compound prepared in 1× assay buffer to an appropriate final 3× compound concentration respective to the concentration response curve designed for the compounds under test) for 10 minutes at 25° C. […] ADP-Glo™ Max reagent was added for 60 minutes (6 uL per well) and subsequently ADP-Glo™ Max development reagent was added for 60 minutes (12 uL per well) prior to signal detection in a microplate reader (EnVision® Multilabel Reader, Perkin Elmer). Following each reagent addition over the course of the assay, assay plates were pulse centrifuged for 30 seconds at 500 rpm.
In all cases, the enzyme converts ATP to ADP and the ADP-Glo™ Max reagent subsequently depletes any remaining endogenous ATP in the reaction system. The ADP-Glo™ Max detection reagent converts the ADP that has been enzymatically produced back into ATP and using ATP as a substrate together with luciferin for the enzyme luciferase, light is generated which produces a detectable luminescence. […] The percentage inhibition produced by each concentration of compound was calculated using the equation shown below: […]

The mark [1] stands for this setting: Table 18, additional potency data, 25° C.

Turning to `Cc1c(NC(=O)C(C)(C)c2csc(NS(=O)(=O)C3CC3)n2)ccc(-c2cncc(Cl)c2)c1C` [T365, N-(4-(5-chloropyridin-3-yl)-2,3-dimethylphenyl)-2-(2-(cyclopropanesulfonamido)thiazol-4-yl)-2-methylpropanamide], the IC50 under setting [1] was < 100 nM. On the same count and under the same terms, with `O=C(Nc1ccc(-c2cncc(Cl)c2)cc1)C1(c2csc(NS(=O)(=O)C3CC3)n2)CC1` [T373, N-(4-(5-chloropyridin-3-yl)phenyl)-1-(2-(cyclopropanesulfonamido)thiazol-4-yl)cyclopropane-1-carboxamide] the figure was < 100 nM; with `CCNc1cncc(-c2ccc(NC(=O)C(CC)c3csc(NS(=O)(=O)C4CC4)n3)cc2)n1` (centres unmarked) [T444, 2-(2-(Cyclopropanesulfonamido)thiazol-4-yl)-N-(4-(6-(ethylamino)pyrazin-2-yl)phenyl)butanamide], < 100 nM.

As to `CC(C)(C(=O)Nc1ccc(-c2cccnc2)cc1Cl)c1csc(NS(=O)(=O)C2CC2)n1` [T41], the IC50 (Table 17, 25° C.) was in the range of 100 to 1000 nM. Regarding `O=C(Nc1ccc(-c2cccnc2)cc1)C1CCc2sc(NS(=O)(=O)C3CC3)nc21` (centres unmarked) [T213], the IC50 (Table 17, 25° C.) was in the range of 100 to 1000 nM. On to `CS(=O)(=O)Nc1nc(CC(=O)Nc2ccc(-c3ccccc3)cc2)cs1` [T1, N-([1,1′-biphenyl]-4-yl)-2-(2-(methylsulfonamido)thiazol-4-yl)acetamide], for which the IC50 (Table 17, 25° C.) is 1000 to 10000 nM.

Take `CC(C(=O)Nc1ccc(-c2cccnc2)cc1)c1csc(NS(=O)(=O)C2CC2)n1` (centres unmarked) [T102]: under “Table 17, 25° C.”, the IC50 is < 100 nM.

Take `CCC(C(=O)Nc1ccc(-c2cncc(C(F)(F)F)c2)cc1F)c1csc(NS(=O)(=O)C2CC2)n1` (single isomer, unassigned) [T416, 2-(2-(cyclopropanesulfonamido)thiazol-4-yl)-N-(2-fluoro-4-(5-(trifluoromethyl)pyridin-3-yl)phenyl)butanamide]: the IC50 under setting [1] was < 100 nM. `CCC(C(=O)Nc1ccc(-c2cnccn2)cc1F)c1csc(NS(=O)(=O)C2CC2)n1` (centres unmarked) [T196]: the IC50 (Table 17, 25° C.) was < 100 nM. Still for that read-out and setting: as for `CC(C)(C(=O)Nc1ccc(-c2ncccn2)cc1)c1csc(NS(=O)(=O)C2CC2)n1` [T4, 2-(2-(cyclopropanesulfonamido)thiazol-4-yl)-2-methyl-N-(4-(pyrimidin-2-yl)phenyl)propanamide], the figure is 1000 to 10000 nM. With `COc1cncc(-c2ccc(NC(=O)C(C)(C)c3csc(NS(=O)(=O)C4CC4)n3)cc2)c1` [T15, 2-(2-(cyclopropanesulfonamido)thiazol-4-yl)-N-(4-(5-methoxypyridin-3-yl)phenyl)-2-methylpropanamide], for the setting “Table 17, 25° C.”, the IC50 is 100 to 1000 nM. Take `CN(C)C(=O)c1cncc(-c2ccc(NC(=O)C(C)(C)c3csc(NS(=O)(=O)C4CC4)n3)cc2)n1` [T19, 6-(4-(2-(2-(cyclopropanesulfonamido)thiazol-4-yl)-2-methylpropanamido)phenyl)-N,N-dimethylpyrazine-2-carboxamide]: the IC50 (Table 17, 25° C.) fell in the range of 100 to 1000 nM. As to `CCC(C(=O)Nc1ccc(-c2cncc(OC)n2)cn1)c1csc(NS(=O)(=O)C2CC2)n1` (centres unmarked) [T176], the IC50 (Table 17, 25° C.) was < 100 nM.

Regarding `CCC(C(=O)Nc1ncc(-c2cncc(C#N)n2)cc1F)c1csc(NS(=O)(=O)C2CC2)n1` (centres unmarked) [T184], for the setting “Table 17, 25° C.”, the IC50 was in the range of 1000 to 10000 nM.

Turning to `NC(C(=O)Nc1ccc(-c2cncc(C(F)(F)F)n2)cn1)c1csc(NS(=O)(=O)C2CC2)n1` (centres unmarked) [T417, 2-Amino-2-(2-(cyclopropanesulfonamido)thiazol-4-yl)-N-(5-(6-(trifluoromethyl)pyrazin-2-yl)pyridin-2-yl)acetamide hydrochloride], under setting [1], the IC50 fell in the range of 100 to 1000 nM.

As to `CCOc1cncc(-c2ccc(NC(=O)C(C)(C)c3nc(NS(=O)(=O)C4CC4)sc3C)c(F)c2)n1` [T358, 2-(2-(cyclopropanesulfonamido)-5-methylthiazol-4-yl)-N-(4-(6-ethoxypyrazin-2-yl)-2-fluorophenyl)-2-methylpropanamide], the IC50 under setting [1] was < 100 nM. `CC(C)(C(=O)Nc1c(F)cc(-c2cncc(Cl)c2)cc1F)c1csc(NS(=O)(=O)C2CC2)n1` [T351, N-(4-(5-chloropyridin-3-yl)-2,6-difluorophenyl)-2-(2-(cyclopropanesulfonamido)thiazol-4-yl)-2-methylpropanamide]: under setting [1], the IC50 is 100 to 1000 nM and < 100 nM.

Turning to `CCOc1cncc(-c2ccc(NC(=O)C(CC)c3csc(NS(=O)(=O)C4CC4)n3)c(OC(F)(F)F)c2)n1` (centres unmarked) [T442], the IC50 under setting [1] was < 100 nM. The same measure, in the same setting: with `Cc1sc(NS(=O)(=O)C2CC2)nc1C(C)(C)C(=O)Nc1ccc(-c2cncc(C#N)c2)cc1` [T374, N-(4-(5-cyanopyridin-3-yl)phenyl)-2-(2-(cyclopropanesulfonamido)-5-methylthiazol-4-yl)-2-methylpropanamide] the figure was 1000 to 10000 nM. Consider `COCCC(C(=O)Nc1ccc(-c2cncc(Cl)c2)cc1)c1csc(NS(=O)(=O)C2CC2)n1` (centres unmarked) [T71], for which the IC50 (Table 17, 25° C.) was < 100 nM.

`CCOc1cncc(-c2cnc(NC(=O)C(CC)c3csc(NS(=O)(=O)C4CC4)n3)c(C)c2)n1` (centres unmarked) [T438]: the IC50 under setting [1] is < 100 nM.

In the case of `CC(C)(C(=O)Nc1ccc(-c2cccc(Cl)c2)cc1)c1csc(NS(=O)(=O)C2CC2)n1` [T87], where the note is “Table 17, 25° C.”, the IC50 was in the range of 100 to 1000 nM.

Turning to `CCC(C(=O)Nc1ccc(-c2cncc(C3CC3)n2)cc1)c1csc(NS(=O)(=O)C2CC2)n1` (centres unmarked) [T291], the IC50 (Table 17, 25° C.) was < 100 nM. For `CCOc1cncc(-c2ccc(NC(=O)C(CC)c3csc(NS(=O)(=O)C4CC4)n3)c(F)c2)n1` (single isomer, unassigned) [T413, 2-(2-(cyclopropanesulfonamido)thiazol-4-yl)-N-(4-(6-ethoxypyrazin-2-yl)-2-fluorophenyl)butanamide], under setting [1], the IC50 was < 100 nM. Same read-out and setting: as for `O=C(Nc1ccc(-c2cncc(C(F)(F)F)n2)cc1)C1(c2csc(NS(=O)(=O)C3CC3)n2)CC1` [T397, 1-(2-(cyclopropanesulfonamido)thiazol-4-yl)-N-(4-(6-(trifluoromethyl)pyrazin-2-yl)phenyl)cyclopropane-1-carboxamide], the figure is 100 to 1000 nM; as for `CCc1cc(-c2cncc(Cl)c2)cc(CC)c1NC(=O)C(C)(C)c1csc(NS(=O)(=O)C2CC2)n1` [T348, N-(4-(5-chloropyridin-3-yl)-2,6-diethylphenyl)-2-(2-(cyclopropanesulfonamido)thiazol-4-yl)-2-methylpropanamide], 100 to 1000 nM; as for `CCOc1cncc(-c2ccc(NC(=O)C(C)(C)c3nc(NS(=O)(=O)C4CC4)sc3C)nc2)n1` [T342, 2-(2-(cyclopropanesulfonamido)-5-methylthiazol-4-yl)-N-(5-(6-ethoxypyrazin-2-yl)pyridin-2-yl)-2-methylpropanamide], < 100 nM. Take `CCC(C(=O)Nc1ccc(-c2cncc(C#N)n2)cn1)c1csc(NS(=O)(=O)C2CC2)n1` (centres unmarked) [T178]: the IC50 (Table 17, 25° C.) is 1000 to 10000 nM. On to `O=C(Nc1ccc(-c2cncc(F)c2)cc1)C1CCc2sc(NS(=O)(=O)C3CC3)nc21` (centres unmarked) [T218], for which the IC50 (Table 17, 25° C.) was in the range of 100 to 1000 nM. Consider `CC(C)Oc1cncc(-c2ccc(NC(=O)C(C)(C)c3csc(NS(C)(=O)=O)n3)c(F)c2)n1` [T392, N-(2-fluoro-4-(6-isopropoxypyrazin-2-yl)phenyl)-2-methyl-2-(2-(methylsulfonamido)thiazol-4-yl)propanamide], for which the IC50 under setting [1] was < 100 nM. For `O=C(Nc1ccc(-c2cncc(C(F)(F)F)n2)cn1)C1CCc2sc(NS(=O)(=O)C3CC3)nc21` (centres unmarked) [T169], the IC50 (Table 17, 25° C.) fell in the range of 100 to 1000 nM. Still for that read-out and setting: with `CCC(C(=O)Nc1ccc(-c2cncc(C(F)(F)F)n2)cc1)c1csc(NS(=O)(=O)C2CC2)n1` (centres unmarked) [T73] the figure was < 100 nM.

Take `CCCOc1cncc(-c2ccc(NC(=O)C(CC)c3csc(NS(=O)(=O)C4CC4)n3)cc2)n1` (centres unmarked) [T75]: the IC50 (Table 17, 25° C.) was < 100 nM. For the compound `CCOc1cncc(-c2ccc(NC(=O)C(C)(C)c3csc(NS(=O)(=O)CC)n3)nc2)n1` [T382, N-(5-(6-ethoxypyrazin-2-yl)pyridin-2-yl)-2-(2-(ethylsulfonamido)thiazol-4-yl)-2-methylpropanamide], the IC50 under setting [1] was < 100 nM. Turning to `CCOc1cncc(-c2ccc(NC(=O)C(NC(=O)OC)c3csc(NS(=O)(=O)C4CC4)n3)cc2)n1` (centres unmarked) [T327, methyl (1-(2-(cyclopropanesulfonamido)thiazol-4-yl)-2-((4-(6-ethoxypyrazin-2-yl)phenyl)amino)-2-oxoethyl)carbamate], the IC50 under setting [1] is < 100 nM.
